Data as given in US10392368B2, “Pyrazolo and triazolo bicyclic compounds as JAK kinase inhibitors” (THERAVANCE BIOPHARMA R&D IP, LLC, priority 2017, dated 2019).
Where two headings read alike, the source gives them in different places.

Assays:
[1] = target: T1, JAK1 (Homo sapiens, UniProt P23458); assay: Biochemical JAK1 kinase assay (LanthaScreen); settings: for Ki: read-out: JAK 1 (pKi) (converted)
T1 construct: GST; purchased Life Technologies
In short: (§1)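 TR-FRET read-out: terbium anti-pSTAT1 (pTyr701) antibody, 2 nM, with 10 mM EDTA quench, emission ratio 520/495 nm. GST-JAK phosphorylates GFP-STAT1 peptide for 1 h at ambient temperature after 1 h compound pre-incubation. pIC50 from dose-response converted to pKi by Cheng-Prusoff.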

[2] = target: T2, JAK3 (Homo sapiens, UniProt P52333); assay: Biochemical JAK3 kinase assay (LanthaScreen); parameters: GST; purchased Life Technologies; settings: for Ki: read-out: JAK 3 (pKi) (converted)
T2 sequence (P52333 1-1124): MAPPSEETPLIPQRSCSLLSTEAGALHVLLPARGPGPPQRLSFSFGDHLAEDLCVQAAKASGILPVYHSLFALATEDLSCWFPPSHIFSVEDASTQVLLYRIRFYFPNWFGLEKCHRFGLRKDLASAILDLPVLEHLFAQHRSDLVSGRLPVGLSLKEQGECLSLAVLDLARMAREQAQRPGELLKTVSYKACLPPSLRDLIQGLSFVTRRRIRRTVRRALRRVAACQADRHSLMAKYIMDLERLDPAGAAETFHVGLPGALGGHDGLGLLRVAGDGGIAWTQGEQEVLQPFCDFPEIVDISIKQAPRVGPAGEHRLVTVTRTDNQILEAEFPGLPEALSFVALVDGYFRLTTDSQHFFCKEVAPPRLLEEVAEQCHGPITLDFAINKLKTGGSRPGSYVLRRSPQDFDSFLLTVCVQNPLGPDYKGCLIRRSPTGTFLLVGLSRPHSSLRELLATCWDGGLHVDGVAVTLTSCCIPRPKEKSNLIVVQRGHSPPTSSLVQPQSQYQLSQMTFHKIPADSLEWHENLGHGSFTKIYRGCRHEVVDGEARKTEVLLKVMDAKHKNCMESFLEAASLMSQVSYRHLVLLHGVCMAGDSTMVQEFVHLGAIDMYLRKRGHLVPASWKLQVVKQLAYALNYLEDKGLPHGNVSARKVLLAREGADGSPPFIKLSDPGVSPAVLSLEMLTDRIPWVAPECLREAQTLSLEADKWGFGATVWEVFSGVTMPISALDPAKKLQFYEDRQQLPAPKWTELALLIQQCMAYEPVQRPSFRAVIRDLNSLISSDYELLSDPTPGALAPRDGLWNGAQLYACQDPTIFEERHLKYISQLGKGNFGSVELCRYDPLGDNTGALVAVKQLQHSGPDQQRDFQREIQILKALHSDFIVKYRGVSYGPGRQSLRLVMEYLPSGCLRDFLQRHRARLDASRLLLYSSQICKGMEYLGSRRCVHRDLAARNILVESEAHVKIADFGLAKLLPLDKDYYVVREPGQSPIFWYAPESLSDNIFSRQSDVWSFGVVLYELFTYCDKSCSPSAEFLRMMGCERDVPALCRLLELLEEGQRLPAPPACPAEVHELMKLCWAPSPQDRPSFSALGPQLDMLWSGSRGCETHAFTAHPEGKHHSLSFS
In short: as §1

[3] = target: T3, Tyk2 (Homo sapiens, UniProt P29597); assay: Biochemical Tyk2 kinase assay (LanthaScreen); settings: for Ki: read-out: Tyk 2 (pKi) (converted)
T3 construct: GST; purchased Life Technologies
In short: as §1

[4] = test system: IL-2 stimulated pSTAT5 in Tall-1 T cells; assay: Cellular JAK3 potency assay: inhibition of IL-2 stimulated pSTAT5 in Tall-1 T cells; type: cell-based, human; settings: for IC50: Homo sapiens, read-out: Tall-1 (pIC50) (converted)
In short: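 Tall-1 human T cells were preincubated with compound for 1 h at 37° C, then stimulated with IL-2 (300 ng/ml final) for 30 min. STAT5 phosphorylation in lysates was read by AlphaLisa bead emission, and IC50 from inhibition curves is given as pIC50 (mean±SD).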

[5] = target: T4, JAK2 (Homo sapiens, UniProt O60674); assay: Biochemical JAK2 kinase assay (LanthaScreen); settings: for Ki: read-out: JAK 2 (pKi) (converted)
T4 construct: GST; purchased Life Technologies
In short: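 pKi values derive from pIC50 via Cheng-Prusoff, with IC50 from a 4-parameter fit of percent-inhibition TR-FRET data using Tb-anti-pSTAT1 (pTyr701) detection. Compound, GST-JAK2 and GFP-STAT1 substrate were pre-incubated 1 h, then ATP started a 1 h ambient reaction (HEPES pH 7.5, 10 mM MgCl2, 1% DMSO).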

[6] = selectivity: difference of pKi JAK3 and pKi JAK1
[7] = TALL-1, IL-2 stimulated pSTAT5 in Tall-1 T cells
[8] = IL-2 stimulated pSTAT5 in Tall-1 T cells
[9] = selectivity JAK3 over JAK1, difference of pKi
[10] = IL-2 stimulated pSTAT5, Tall-1 T cells
[11] = TALL-1, IL-2 stimulated pSTAT5, Tall-1 T cells

T4 sequence (O60674 whole entry): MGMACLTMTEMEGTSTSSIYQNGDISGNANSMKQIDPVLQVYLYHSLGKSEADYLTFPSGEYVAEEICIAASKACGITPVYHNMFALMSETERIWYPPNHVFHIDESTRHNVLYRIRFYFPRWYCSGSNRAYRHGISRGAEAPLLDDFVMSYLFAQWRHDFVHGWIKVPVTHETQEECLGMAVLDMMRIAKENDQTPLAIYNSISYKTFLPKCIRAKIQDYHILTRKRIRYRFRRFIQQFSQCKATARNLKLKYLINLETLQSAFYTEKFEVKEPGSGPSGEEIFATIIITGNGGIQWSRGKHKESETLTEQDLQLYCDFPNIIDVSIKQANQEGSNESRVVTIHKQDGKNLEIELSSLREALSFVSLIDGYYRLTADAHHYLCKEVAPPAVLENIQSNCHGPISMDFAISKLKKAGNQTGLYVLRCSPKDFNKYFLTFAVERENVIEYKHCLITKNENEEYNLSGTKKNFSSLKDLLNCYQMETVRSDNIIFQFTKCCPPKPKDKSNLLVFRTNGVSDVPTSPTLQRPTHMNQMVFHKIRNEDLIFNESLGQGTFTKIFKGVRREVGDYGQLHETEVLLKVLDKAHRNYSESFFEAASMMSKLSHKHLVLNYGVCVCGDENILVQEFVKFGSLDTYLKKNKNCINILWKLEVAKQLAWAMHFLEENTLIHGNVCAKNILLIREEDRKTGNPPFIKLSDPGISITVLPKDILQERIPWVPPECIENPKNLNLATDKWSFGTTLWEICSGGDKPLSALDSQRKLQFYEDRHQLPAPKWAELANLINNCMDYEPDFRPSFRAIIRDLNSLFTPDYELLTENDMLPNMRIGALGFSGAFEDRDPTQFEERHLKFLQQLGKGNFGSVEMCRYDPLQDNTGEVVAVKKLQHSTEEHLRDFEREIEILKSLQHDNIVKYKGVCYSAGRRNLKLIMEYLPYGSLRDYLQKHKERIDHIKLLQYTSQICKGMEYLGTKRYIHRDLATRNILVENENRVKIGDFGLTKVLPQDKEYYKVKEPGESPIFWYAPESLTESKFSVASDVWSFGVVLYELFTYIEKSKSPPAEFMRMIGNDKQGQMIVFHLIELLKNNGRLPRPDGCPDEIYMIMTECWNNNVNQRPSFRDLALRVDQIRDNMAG
T3 sequence (P29597 whole entry): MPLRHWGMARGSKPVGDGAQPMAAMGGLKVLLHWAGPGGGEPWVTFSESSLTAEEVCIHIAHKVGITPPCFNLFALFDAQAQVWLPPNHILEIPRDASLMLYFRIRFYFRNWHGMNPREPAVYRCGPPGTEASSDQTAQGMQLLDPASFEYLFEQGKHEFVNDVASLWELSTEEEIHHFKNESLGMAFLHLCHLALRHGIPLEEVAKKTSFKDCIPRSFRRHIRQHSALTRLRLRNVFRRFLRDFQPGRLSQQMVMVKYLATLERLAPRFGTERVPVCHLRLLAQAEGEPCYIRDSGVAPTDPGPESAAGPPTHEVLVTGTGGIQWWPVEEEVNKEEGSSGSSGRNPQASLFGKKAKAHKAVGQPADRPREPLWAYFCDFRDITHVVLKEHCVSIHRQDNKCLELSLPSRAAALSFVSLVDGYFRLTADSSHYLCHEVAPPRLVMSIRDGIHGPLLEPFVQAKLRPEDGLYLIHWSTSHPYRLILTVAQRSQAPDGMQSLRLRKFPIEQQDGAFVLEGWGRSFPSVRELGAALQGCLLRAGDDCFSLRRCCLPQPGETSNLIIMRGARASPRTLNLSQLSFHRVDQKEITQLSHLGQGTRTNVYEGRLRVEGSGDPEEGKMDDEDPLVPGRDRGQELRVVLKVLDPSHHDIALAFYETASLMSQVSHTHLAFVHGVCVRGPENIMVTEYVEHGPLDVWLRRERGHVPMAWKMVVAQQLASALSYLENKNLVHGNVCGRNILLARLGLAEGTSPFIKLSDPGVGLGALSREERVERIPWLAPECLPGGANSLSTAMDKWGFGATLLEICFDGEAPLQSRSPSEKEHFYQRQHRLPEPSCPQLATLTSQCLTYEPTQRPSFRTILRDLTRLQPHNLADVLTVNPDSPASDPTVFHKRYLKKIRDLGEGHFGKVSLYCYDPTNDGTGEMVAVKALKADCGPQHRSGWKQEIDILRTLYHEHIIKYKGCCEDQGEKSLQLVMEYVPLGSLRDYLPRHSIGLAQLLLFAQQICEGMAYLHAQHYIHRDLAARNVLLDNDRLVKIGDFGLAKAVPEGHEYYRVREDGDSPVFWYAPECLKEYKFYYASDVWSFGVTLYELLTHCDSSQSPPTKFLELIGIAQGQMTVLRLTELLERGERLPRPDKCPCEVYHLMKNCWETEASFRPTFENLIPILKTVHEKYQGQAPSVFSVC
T1 sequence (P23458 whole entry): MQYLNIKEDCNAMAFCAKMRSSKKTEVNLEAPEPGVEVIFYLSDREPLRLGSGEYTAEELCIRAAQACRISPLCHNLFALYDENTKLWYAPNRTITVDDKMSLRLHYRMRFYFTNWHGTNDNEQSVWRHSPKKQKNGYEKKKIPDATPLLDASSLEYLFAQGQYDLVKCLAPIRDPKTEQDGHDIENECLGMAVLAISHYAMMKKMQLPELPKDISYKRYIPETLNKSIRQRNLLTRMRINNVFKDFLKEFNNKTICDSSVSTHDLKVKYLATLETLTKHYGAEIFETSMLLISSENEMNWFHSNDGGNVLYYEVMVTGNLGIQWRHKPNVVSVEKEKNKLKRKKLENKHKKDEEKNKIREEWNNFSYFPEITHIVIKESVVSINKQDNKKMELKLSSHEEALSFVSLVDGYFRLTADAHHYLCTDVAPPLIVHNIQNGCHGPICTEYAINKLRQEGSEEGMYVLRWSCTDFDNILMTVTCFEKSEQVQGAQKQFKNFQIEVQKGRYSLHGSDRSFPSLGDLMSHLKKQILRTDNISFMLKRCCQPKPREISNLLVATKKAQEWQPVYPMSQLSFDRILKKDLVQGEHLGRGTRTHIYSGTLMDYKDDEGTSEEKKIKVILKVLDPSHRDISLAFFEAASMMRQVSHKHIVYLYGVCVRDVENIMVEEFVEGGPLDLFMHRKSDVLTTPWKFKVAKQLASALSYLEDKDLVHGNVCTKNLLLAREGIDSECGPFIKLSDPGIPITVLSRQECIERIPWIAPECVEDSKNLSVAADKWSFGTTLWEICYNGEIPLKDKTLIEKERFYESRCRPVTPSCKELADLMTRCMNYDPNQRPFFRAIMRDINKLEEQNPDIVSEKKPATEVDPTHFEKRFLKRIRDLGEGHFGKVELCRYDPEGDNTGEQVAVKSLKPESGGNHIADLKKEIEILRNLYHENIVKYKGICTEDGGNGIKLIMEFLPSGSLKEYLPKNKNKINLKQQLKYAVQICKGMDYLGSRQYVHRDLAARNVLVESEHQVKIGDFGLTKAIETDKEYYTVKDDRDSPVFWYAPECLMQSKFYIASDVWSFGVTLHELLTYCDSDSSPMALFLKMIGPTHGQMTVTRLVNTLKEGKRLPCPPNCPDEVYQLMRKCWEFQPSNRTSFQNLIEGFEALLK

| Structure (SMILES) | Ki [1] [nM] | Ki [2] [nM] | JAK3 (pKi)-JAK1 (pKi) [2, 6] | Ki [3] [nM] | IC50 [4, 7] [nM] | Ki [5] [nM] | JAK 1 (pKi) [1] | JAK 3 (pKi) [2] | Tyk 2 (pKi) [3] | Tall-1 (pIC50) [4, 8] | JAK 2 (pKi) [5] | JAK3 (pKi)-JAK1 (pKi) [2, 9] | Tall-1 (pIC50) [4, 10] | IC50 [4, 11] [nM] |
| --- | --- | --- | --- | --- | --- | --- | --- | --- | --- | --- | --- | --- | --- | --- |
| CN(C)C/C=C/C(=O)N1CC(COc2cc(-c3ccc(O)c(Cl)c3)cc3[nH]ncc23)C1 [Compound 3-2] | > 100 | 0.1 to 1 | A (a value of 3 or above) | > 100 | 31.6 to 200 | > 100 | – | – | – | – | – | – | – | – |
| C=CC(=O)N1CC(Oc2cc(-c3ccc(O)cc3)cc3[nH]ncc23)(C(F)F)C1 [Compound 5-14] | – | – | A (a value of 3 or above) | – | – | – | E (a pKi value of 7 or below (Ki of 100 nM or above)) | A (a pKi value≥10 (Ki≤0.1 nM)) | E (a pKi value of 7 or below (Ki of 100 nM or above)) | A (a pIC50 value≥7.5 (IC50≤32 nM)) | E (a pKi value of 7 or below (Ki of 100 nM or above)) | – | – | – |
| CN(C)C/C=C/C(=O)N1CCC(C)(Nc2cc(-c3ccc(O)c(F)c3)cc3[nH]ncc23)CC1 [Compound 7-12] | – | – | – | – | – | – | E (a pKi value of 7 or below (Ki of 100 nM or above)) | B (a pKi value between 9 and 10 (Ki between 1 nM and 0.1 nM)) | E (a pKi value of 7 or below (Ki of 100 nM or above)) | – | D (a pKi value between 7 and 8 (Ki between 100 nM and 10 nM)) | A (a value of 3 or above) | B (a pIC50 value between 6.7 (included) and 7.5 (IC50 between 200 nM and 32 nM)) | – |
| C=CC(=O)N1CCSC[C@H]1C(=O)Nc1cc(-c2ccc(O)cc2)cc2[nH]ncc12 [Compound 12-64] | > 100 | < 0.1 | – | > 100 | – | > 100 | – | – | – | – | – | A (a value of 3 or above) | – | < 31.6 |
| C=CC(=O)N1CCC(N(C)c2cc(-c3ccc(O)c(F)c3)cc3[nH]ncc23)CC1 [Compound 7-10] | – | – | – | – | – | – | E (a pKi value of 7 or below (Ki of 100 nM or above)) | B (a pKi value between 9 and 10 (Ki between 1 nM and 0.1 nM)) | E (a pKi value of 7 or below (Ki of 100 nM or above)) | – | D (a pKi value between 7 and 8 (Ki between 100 nM and 10 nM)) | A (a value of 3 or above) | B (a pIC50 value between 6.7 (included) and 7.5 (IC50 between 200 nM and 32 nM)) | – |
| C=CC(=O)N1CCC(C)(Nc2cc(-c3ccc(O)cc3)cc3[nH]ncc23)CC1 [Compound 7-2] | – | – | – | – | – | – | E (a pKi value of 7 or below (Ki of 100 nM or above)) | B (a pKi value between 9 and 10 (Ki between 1 nM and 0.1 nM)) | E (a pKi value of 7 or below (Ki of 100 nM or above)) | – | D (a pKi value between 7 and 8 (Ki between 100 nM and 10 nM)) | A (a value of 3 or above) | A (a pIC50 value≥7.5 (IC50≤32 nM)) | – |
| COCCN(C)C/C=C/C(=O)N1CC(COc2cc(-c3ccc(O)cc3)cc3[nH]ncc23)C1 [Compound 3-119] | > 100 | < 0.1 | B (a value of 2.3 to 3) | > 100 | 31.6 to 200 | 10 to 100 | – | – | – | – | – | – | – | – |
| C=CC(=O)N1CC(COc2nc(-c3ccc(O)c(F)c3)cc3[nH]ncc23)C1 [Compound 3-37] | > 100 | < 0.1 | A (a value of 3 or above) | > 100 | < 31.6 | 10 to 100 | – | – | – | – | – | – | – | – |
| C=CC(=O)N1CC[C@@H](COc2cc(-c3ccc(O)cc3)cc3[nH]ncc23)C1 [Compound 12-20] | – | – | – | – | – | – | E (a pKi value of 7 or below (Ki of 100 nM or above)) | B (a pKi value between 9 and 10 (Ki between 1 nM and 0.1 nM)) | E (a pKi value of 7 or below (Ki of 100 nM or above)) | – | D (a pKi value between 7 and 8 (Ki between 100 nM and 10 nM)) | A (a value of 3 or above) | A (a pIC50 value≥7.5 (IC50≤32 nM)) | – |
| C=CC(=O)N1CC[C@H](Oc2cc(-c3ccc(O)cc3)cc3[nH]nc(COC)c23)C1 [Compound 1-22] | > 100 | < 0.1 | A (a value of 3 or above) | > 100 | 31.6 to 200 | 10 to 100 | – | – | – | – | – | – | – | – |
| C=CC(=O)N1CCC(COc2cc(-c3ccc(O)cc3)cc3[nH]ncc23)CC1 [Compound 12-27] | > 100 | < 0.1 | – | > 100 | – | 10 to 100 | – | – | – | – | – | A (a value of 3 or above) | – | < 31.6 |
| C=CC(=O)N1CCC(COc2nc(-c3ccc(O)cc3)nc3[nH]ncc23)CC1 [Compound 14-12] | – | – | – | – | – | – | E (a pKi value of 7 or below (Ki of 100 nM or above)) | B (a pKi value between 9 and 10 (Ki between 1 nM and 0.1 nM)) | E (a pKi value of 7 or below (Ki of 100 nM or above)) | – | E (a pKi value of 7 or below (Ki of 100 nM or above)) | A (a value of 3 or above) | C (a pIC50 value between 6 and 6.7 (IC50 between 1 μM and 200 nM)) | – |
| C=CC(=O)N1CC[C@H](COc2cc(-c3ccc(O)c(F)c3)nc3[nH]ncc23)C1 [Compound 2-17] | – | – | A (a value of 3 or above) | – | – | – | E (a pKi value of 7 or below (Ki of 100 nM or above)) | A (a pKi value≥10 (Ki≤0.1 nM)) | E (a pKi value of 7 or below (Ki of 100 nM or above)) | B (a pIC50 value between 6.7 (included) and 7.5 (IC50 between 200 nM and 32 nM)) | E (a pKi value of 7 or below (Ki of 100 nM or above)) | – | – | – |
| C=CC(=O)N1CCC(N(C)c2cc(-c3ccc(O)c(F)c3)cc3[nH]ncc23)CC1 [Compound 7-9] | > 100 | < 0.1 | – | > 100 | – | 10 to 100 | – | – | – | – | – | A (a value of 3 or above) | – | < 31.6 |
